We go through three molecules from patent publication US20070243146A1, “Vitamin K1 as Energizer in Cosmetic Formulations” (priority 2004, published 2007).

One assay deals with eukaryotic cell lines. The following applies: cited from earlier work.
Assay [1] concerns human primary fibroblasts. Put plainly: In vitro analysis of ATP levels in human epidermal fibroblasts (ViaLight Plus ATP assay). The format is cell-based. On the procedure: The biological endpoint in the example is the energy level of each individual cell. This is determined quantitatively by the level of adenosine triphosphate (ATP), which is the common energy storage molecule in human cells.
Primary epidermal fibroblast were isolated from human foreskin and cultured in DMEM with 10% fetal-bovine serum-(FBS), penicillin, and streptomycin. The cells were maintained in a growth chamber at 37° C. and 5% CO2 and used for these kinds of experiments between passage 8 and 12. Fibroblasts were transferred to 96 well plates and allowed to attach for 5 h in standard medium before a serum starvation with 1% FBS over 4 days was initiated.
Epidermal fibroblasts were treated between 4 h and 48 h with vitamin K1 at concentrations up to 44 μM in DMEM. After variing incubation time, the ATP-assay was performed with the High Sensitivy Cell Proliferation Assay (Via light Plus, Cambrex). The procedure was done according to the manufacturers recommendations. Briefly, the culture plate was removed from the incubator and was allowed to cool down to room temperature for at least 5 minutes, then 50 μl of Cell Lysis Reagent were added to each well and incubated 10 minutes, 100 μl of AMR PLUS were added to each well and incubated for 2 minutes at room temperature. The plate was analysed in a luminometer.

The conditions of assay [2]: 45 mg/day, women with osteoporosis; cited from earlier work.

With `COC1=C(OC)C(=O)C(C/C=C(\C)CC/C=C(\C)CC/C=C(\C)CC/C=C(\C)CC/C=C(\C)CC/C=C(\C)CC/C=C(\C)CC/C=C(\C)CC/C=C(\C)CCC=C(C)C)=C(C)C1=O` [coenzyme Q10], the “stimulation of cell growth via transplasma membrane electron transport” value in the assay with eukaryotic cell lines is reported as “able to stimulate these cells”.

With `CC1=C(C/C=C(\C)CCC[C@H](C)CCC[C@H](C)CCCC(C)C)C(=O)c2ccccc2C1=O` [vitamin K1, phytomenadione], the “incubation time at which maximum stimulation of ATP levels is reached” value in assay [1] (2 μM vitamin K1, serum-starved fibroblasts, FIG. 1) is “about 16 h”. The “concentration with the most promising induction of ATP levels” value in assay [1] (dose-response at two time points, no correlation to the time point, FIG. 2) came out at 2 µM. For the same molecule, in the assay with eukaryotic cell lines, the “stimulation of cell growth via transplasma membrane electron transport” value is “no efficacy”.

As to menaquinone [vitamin K2], in assay [2], the “effect on loss of bone mineral density” value was “slow down but not prevent a progressive loss of bone mineral density” and the “effect on risk of bone fractures” value is “reduce the risk of bone fractures”.
